ChEMBL document CHEMBL4680188 (Eur J Med Chem, 2020)
Calls of active or inactive are those of the source. No cut-off for these calls is given here.

Columns and labels:
[1] = Oral bioavailability in rat; assay type: ADME, organism-based; conditions: in vivo
[2] = Oral bioavailability in human; assay type: ADME, organism-based; conditions: in vivo
[3] = Permeability in human Caco-2 cells; assay type: ADME, cell-based
[4] = biological target: T1, 5-hydroxytryptamine receptor 2C (Homo sapiens) (UniProt P28335); assay: Binding affinity to human 5HT2C expressed in CHO cells; assay type: cell-based
T1 sequence (whole entry): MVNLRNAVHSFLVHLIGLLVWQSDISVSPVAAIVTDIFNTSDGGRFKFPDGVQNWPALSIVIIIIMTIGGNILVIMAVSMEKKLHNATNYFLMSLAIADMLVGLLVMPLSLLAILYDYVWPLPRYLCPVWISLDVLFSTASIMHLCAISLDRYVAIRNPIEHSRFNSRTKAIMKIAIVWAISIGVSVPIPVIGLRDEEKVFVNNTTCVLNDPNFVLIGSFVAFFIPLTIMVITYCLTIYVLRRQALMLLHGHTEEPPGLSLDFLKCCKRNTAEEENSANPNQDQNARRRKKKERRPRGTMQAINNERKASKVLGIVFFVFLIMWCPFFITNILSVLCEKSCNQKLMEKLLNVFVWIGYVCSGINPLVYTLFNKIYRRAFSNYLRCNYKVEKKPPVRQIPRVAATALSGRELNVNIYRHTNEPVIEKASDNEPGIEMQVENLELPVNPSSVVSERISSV

[5] = biological target: T2, Melatonin receptor type 1A (Homo sapiens, UniProt P48039); assay: Displacement of 2-[125l]-lodomelatonin from human MT1 expressed in CHO cells incubated for 120 mins by radioligand binding assay; assay type: cell-based
T2 sequence (P48039 whole entry): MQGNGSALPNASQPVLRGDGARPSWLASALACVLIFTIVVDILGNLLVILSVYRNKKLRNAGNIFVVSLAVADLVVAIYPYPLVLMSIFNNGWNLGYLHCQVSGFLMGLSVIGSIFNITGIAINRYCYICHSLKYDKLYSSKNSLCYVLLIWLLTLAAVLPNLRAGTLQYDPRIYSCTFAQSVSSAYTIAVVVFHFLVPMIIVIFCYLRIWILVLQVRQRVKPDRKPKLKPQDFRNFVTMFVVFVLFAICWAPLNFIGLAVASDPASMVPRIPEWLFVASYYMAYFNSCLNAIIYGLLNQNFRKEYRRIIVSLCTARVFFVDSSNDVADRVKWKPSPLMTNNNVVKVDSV

[6] = biological target: T3, Melatonin receptor type 1B (Homo sapiens, UniProt P49286); assay: Displacement of 2-[125l]-lodomelatonin from human MT2 expressed in CHO cells incubated for 120 mins by radioligand binding assay; assay type: cell-based
T3 sequence (P49286 whole entry): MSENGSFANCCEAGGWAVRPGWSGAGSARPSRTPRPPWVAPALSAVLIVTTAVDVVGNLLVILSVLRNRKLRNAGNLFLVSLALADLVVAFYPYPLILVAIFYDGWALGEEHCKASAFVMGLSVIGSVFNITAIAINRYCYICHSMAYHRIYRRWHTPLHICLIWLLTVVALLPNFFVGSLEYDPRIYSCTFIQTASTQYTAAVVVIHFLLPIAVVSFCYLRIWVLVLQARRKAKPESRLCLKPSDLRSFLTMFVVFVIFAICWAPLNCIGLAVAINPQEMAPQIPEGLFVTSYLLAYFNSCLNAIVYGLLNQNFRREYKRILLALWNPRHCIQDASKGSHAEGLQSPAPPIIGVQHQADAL

[7] = biological target: T2, Melatonin receptor type 1A; assay: Agonist activity at human MT1 expressed in CHO cell membrane incubated for 1 hr by [35S]GTPgammaS binding assay; assay type: functional, cell membranes
[8] = biological target: T3, Melatonin receptor type 1B; assay: Agonist activity at human MT2 expressed in CHO cell membrane incubated for 1 hr by [35S]GTPgammaS binding assay; assay type: functional, cell membranes

| Compound | bioavailability [1] [%] | bioavailability [2] [%] | permeability [3] [%] | Activity [4] | Ki [5] [nM] | Ki [6] [nM] | EC50 [7] [nM] | EC50 [8] [nM] |
| --- | --- | --- | --- | --- | --- | --- | --- | --- |
| COc1ccc2cccc(CCNC(C)=O)c2c1 [AGOMELATINE] | 13 | 11 | 100 | – | – | – | – | – |
| COc1ccc2cnnc(CCNC(C)=O)c2c1 | – | – | 2 | inactive | 2110 | 799 | > 10000 | 428 |
| COc1ccc2nc(-c3ccccc3)nc(CCNC(C)=O)c2c1 | 2 | 7 | 100 | inactive | 896 | 15.6 | > 10000 | 237 |
| COc1ccc2ncnc(CCNC(C)=O)c2c1 | 92 | 97 | 100 | inactive | 230 | 115 | 2600 | 835 |
| COc1ccc2ncnc(N3CCN(C(=O)C4CC4)CC3)c2c1 | – | – | – | inactive | > 10000 | 3300 | – | – |
| COc1ccc2cnnc(CCNC(=O)C3CC3)c2c1 | – | – | – | inactive | 3020 | 1370 | > 10000 | 1250 |
| COc1ccc2ncnc(CCNC(=O)C3CC3)c2c1 | – | – | – | inactive | 549 | 398 | – | – |
| CCCC(=O)NCCc1ncnc2ccc(OC)cc12 | 69 | 36 | – | inactive | 320 | 41 | 652 | 219 |
| COc1cccc(-c2nc(CCNC(C)=O)c3cc(OC)ccc3n2)c1 | – | – | – | inactive | 500 | 46 | 321 | 543 |
| CCC(=O)NCCc1nncc2ccc(OC)cc12 | 54 | 46 | 100 | inactive | 1470 | 414 | > 10000 | 327 |
| CCC(=O)NCCc1ncnc2ccc(OC)cc12 | – | – | – | inactive | 210 | 41.1 | 432 | 238 |
| CCNC(=O)N1CCN(c2ncnc3ccc(OC)cc23)CC1 | – | – | – | inactive | > 10000 | 2800 | – | – |
| CCCC(=O)NCCc1nncc2ccc(OC)cc12 | 33 | 36 | 100 | inactive | 1140 | 108 | > 10000 | 89 |
| COc1ccc2ncnc(NCCNC(C)=O)c2c1 | – | – | – | inactive | > 10000 | > 10000 | – | – |
